Source: publication PMC12889028, “Discovery and biological evaluation of novel N-aryl-N′-methylbenzodrazides against Schistosoma japonicum in vitro and in vivo” (Microbiology Spectrum, 2025)
Like-named read-outs stand apart in the source and are kept apart here.

Key:
[1] = system: HepG2 (human liver cancer) cells; test: Cytotoxicity MTT assay, HepG2; assay type: cell-based
Description: (§1) The cytotoxicity of compounds 5, 18, and 41 against human liver cancer (HepG2) and human breast cancer (MCF-7) cell lines in vitro was evaluated using the MTT assay, with cisplatin as a positive control. Cells were plated into 96-well plates and incubated in 100 μL of Dulbecco’s modified Eagle’s medium for 24 h. Test compounds at specified final concentrations were then added to the culture medium. After 48 h incubation, MTT dye (10 μL, 0.5 mg/mL) was added, and cells were incubated for an additional 4 h at 37°C in 5% CO2. Formazan crystals were dissolved in 100 μL DMSO per well, and absorbance at 570 nm (OD570) was measured using an ELx800 microplate reader (Bio-Tek, Winooski, VT, USA) with background subtraction. Cytotoxicity was expressed as IC50 (the concentration causing 50% reduction in cell growth compared to untreated controls). Experiments were performed in triplicate, with results presented as mean ± standard deviation.

[2] = system: MCF-7 (human breast cancer) cells; test: Cytotoxicity MTT assay, MCF-7; assay type: cell-based
Description: as §1

healthy mice = test: Acute oral toxicity; assay type: in vivo; details: single oral dose, healthy ICR mice
Description: (§2) ICR mice (n = 10/group), aged 6 to 8 weeks, received a single oral dose of compounds 5, 18, and 41 (732–2,234 mg/kg). LD50 values were determined by Probit analysis (SPSS 26.0).

Acute oral toxicity = assay type: in vivo; details: ICR, mouse, in vivo, po, single oral dose, healthy ICR mice
Description: as §2

[3] = system: adult worms of S. japonicum (Chinese strain); test: microbe, parasite or virus in culture; details: for mortality at 100 µM / LC50: Schistosoma japonicum; for LC50: read-out: LC50 (72 h)
Description: S. japonicum cercariae (Chinese strain) were acquired from infected Oncomelania hupensis snails (Wuxi Insect Vector Biology Co., Ltd., China) ([28]). ICR mice (6–8 weeks, 22–25 g; Hunan SJA Laboratory Animal Co., Ltd., China) were percutaneously infected via abdominal exposure to 60 ± 5 cercariae. Adult schistosomes were perfused from the hepatic portal system at 35 dpi using a modified Duvall and DeWitt method ([29]). Animals were housed under controlled conditions (22°C ± 1°C, 12 h light/dark cycle) with ad libitum access to feed and water.
Adult S. japonicum worms isolated from ICR mice were maintained in sterile culture medium (2.0 mL) comprising 77% RPMI 1640 (Lanzhou Bailing Biotech Co., Ltd.; pH 7.5, HEPES-buffered), 20% heat-inactivated fetal bovine serum (Lanzhou Minhai Bio-Engineering Co., Ltd.), and 3% penicillin-streptomycin (100×; 10,000 U/mL penicillin, 10,000 μg/mL streptomycin; New Cell & Molecular Biotech Co., Ltd., China). Incubation was performed at 37°C under 5% CO2. Test compounds were dissolved in DMSO as 0.1 M stock solutions; 2.0 μL aliquots were added to worm-containing media (final concentration: 100 μM in 0.1% DMSO). Negative controls received equivalent volumes of vehicle (0.1% DMSO in RPMI 1640). Parasite viability (motor activity, tegumental integrity, survival) was assessed every 12 h for 72 h using an Olympus CKX53 inverted microscope (n ≥ 3 independent replicates).

[4] = system: S. japonicum (Chinese strain); test: In vivo antischistosomal assay in infected mice (worm burden, worm morphology, liver eggs); set-up: species or system Schistosoma japonicum in ICR mice; details: for Morphology of worms after treatment in vivo, adult stage / Worm burden reduction (WBR), Adult / Number of worms, Adult / Morphology of worms after treatment in vivo, juvenile stage / Worm burden reduction (WBR), Juvenile / Number of worms, Juvenile: mice, oral 100 mg/kg/day for 5 days; for Worm burden reduction (WBR), Adult: adult stage (from 35 dpi); for Worm burden reduction (WBR), Adult / Worm burden reduction (WBR), Juvenile: 100 mg/kg/day; for Number of worms, Adult: adult stage (treatment from 35 dpi, sacrifice 45 dpi); for Worm burden reduction (WBR), Juvenile: juvenile stage (from 9 dpi); for Number of worms, Juvenile: juvenile stage (treatment from 9 dpi, sacrifice 45 dpi); for Hepatic egg burden, adult-stage treatment / Hepatic egg burden, juvenile-stage treatment: mouse livers at 45 dpi; for Hepatic egg burden, adult-stage treatment: treatment in adult stage; for Hepatic egg burden, juvenile-stage treatment: treatment in juvenile stage
Description: (§3) Lead compounds 5, 18, and 41 (100 mg/kg) were orally administered once daily for 5 consecutive days to infected mice (n = 6/group) during two therapeutic windows: (i) Juvenile stage: treatment initiated at 9 dpi, terminal sacrifice at 45 dpi; (ii) adult stage: treatment initiated at 35 dpi, terminal sacrifice at 45 dpi. Positive controls received praziquantel (PZQ, 100 mg/kg/day ×5 days); negative controls received PBS (0.3 mL). Mice treated at 9 dpi were euthanized 36 days post-treatment; those treated at 35 dpi were euthanized 10 days post-treatment. Adult worms were perfused from the hepatic portal system and mesenteric veins. Parasite burden was quantified by worm enumeration, and worm burden reduction (WBR) was calculated:
WBR (%)=[1−Mean worm count (treated) / Mean worm count (control)]×100% .

[5] = Serum hepatic/renal function profiling of infected, treated mice; assay type: in vivo, ICR mice; details: for Serum GGT: normal range 1–15 U/L; for Serum TBIL: normal range 1.7–15.4 µM; for Serum BUN: normal range 4.9–10.4 mM; for Serum ALT: normal range 28–132 U/L; for Serum AST: normal range 59–247 U/L; for Nephrotoxicity: infected treated mice, judged from BUN
Description: Following maturation, Schistosoma parasites initiate oviposition, with a proportion of eggs migrating via the circulatory system to hepatic tissues. This ectopic deposition induces granuloma formation that subsequently elicits a cascade of immune-mediated pathologies, ultimately compromising hepatic and renal functions in murine models. To evaluate therapeutic efficacy, retro-orbital blood sampling was performed for comprehensive hepatic function profiling, enabling systematic assessment of pharmacological impacts on schistosomiasis-associated organ damage.
as §3, with “calculated: […]” for “calculated:”

adult S. japonicum worms = test: SEM examination in vitro of tegumental damage; assay type: cell-based, Schistosoma japonicum; details: 100 μM
Description: Adult S. japonicum worms (male/female) underwent standardized fixation after in vitro exposure to compounds 5, 18, and 41 over a period of 12 h. First, the samples were immersed in 2.5% glutaraldehyde (prepared with 40 mL 0.2 M phosphate-buffered saline [PBS, pH 7.4], 5 mL 50% glutaraldehyde stock, and 55 mL ultrapure water) at 4°C for 24 h. After triple washes in PBS for 5 min each, worms were rinsed with deionized water for 10 min. The next dehydration sequence included ethanol gradient (50%, 70%, 80%, 90%, 100%; 5 min/step) and tert-butanol gradient (50%, 70%, 90%, 100%; 10 min/step). The worms were freeze-dried, directly sputter-covered with a thin gold layer using a Sputter Coater, and imaged using a scanning electron microscope (Quanta 450).

[6] = Homo sapiens, HepG2, 48 h incubation
[7] = Homo sapiens, MCF7, 48 h incubation
[8] = 24 h, read-out: Mortality (%) 24 h, 100 μM, 24 h, adult worms in vitro
[9] = 36 h, read-out: Mortality (%) 36 h, 100 μM, 36 h, adult worms in vitro
[10] = 48 h, read-out: Mortality (%) 48 h, 100 μM, 48 h, adult worms in vitro
[11] = 72 h, read-out: Mortality (%) 72 h, 100 μM, 72 h, adult worms in vitro
[12] = infected mice treated in adult stage
[13] = infected mice treated in juvenile stage

## CN(NC(=O)c1ccc(Br)cc1)c1ccc(Cl)c(Cl)c1 [Compound 18]
[1]; [6]
  IC50: 22.6 ± 1.48 µM
[2]; [7]
  IC50: 40.9 ± 2.82 µM
Healthy mice
  LD50: >2,000 mg/kg
  LogLD50: >3.30
Acute oral toxicity
  LD50: 1400 mg/kg
[3]; 100 μM, 72 h, adult worms in vitro
  Mortality (%) 72 h: 100%
[3]; [8]
  mortality at 100 µM: 10%
[3]; [9]
  mortality at 100 µM: 50%
[3]; [10]
  mortality at 100 µM: 80%
[3]; 72 h
  LC50: 83 ± 1.9 µM
[3]; [11]
  mortality at 100 µM: > 90%
[4]
  Morphology of worms after treatment in vivo, adult stage: making the males thicker and shorter
  Worm burden reduction (WBR), Adult: 20%
  Number of worms, Adult: 35
  Morphology of worms after treatment in vivo, juvenile stage: marked stunting of male schistosomes
  Worm burden reduction (WBR), Juvenile: 40%
  Number of worms, Juvenile: 24
  Hepatic egg burden, adult-stage treatment: comparable egg burdens to untreated controls
  Hepatic egg burden, juvenile-stage treatment: significantly reduced egg burdens
[5]; [12]
  Serum GGT: 6.73 ± 9.70 U/L
  Serum TBIL: 18.73 ± 6.05 µM
  Serum BUN: 8.68 ± 1.22 mM
  Serum ALT: 322.33 ± 239.58 U/L
  Serum AST: 783.67 ± 457.47 U/L
[5]; [13]
  Serum GGT: 0.93 ± 0.81 U/L
  Serum TBIL: 2.98 ± 1.03 µM
  Serum BUN: 12.53 ± 1.31 mM
  Serum ALT: 546.00 ± 82.15 U/L
  Serum AST: 673.67 ± 153.58 U/L
[5]
  Nephrotoxicity: transient nephrotoxicity

## CN(NC(=O)c1ccc(Br)cc1)c1ccc(C(F)(F)F)c(Cl)c1 [Compound 41]
[1]; [6]
  IC50: 20.7 ± 1.36 µM
[2]; [7]
  IC50: 39.2 ± 3.53 µM
Healthy mice
  LD50: >2,000 mg/kg
  LogLD50: >3.30
Acute oral toxicity
  LD50: 1400 mg/kg
[3]; [8]
  mortality at 100 µM: 35%
[3]; [9]
  mortality at 100 µM: 70%
[3]; [10]
  mortality at 100 µM: 80%
[3]; 72 h
  LC50: 61.4 ± 1.8 µM
[3]; [11]
  mortality at 100 µM: 100%
[4]
  Morphology of worms after treatment in vivo, adult stage: making the males thicker and shorter
  Worm burden reduction (WBR), Adult: 30%
  Number of worms, Adult: 31
  Morphology of worms after treatment in vivo, juvenile stage: marked stunting of male schistosomes
  Worm burden reduction (WBR), Juvenile: 30%
  Number of worms, Juvenile: 28
  Hepatic egg burden, adult-stage treatment: comparable egg burdens to untreated controls
[5]; [12]
  Serum GGT: 0.87 ± 0.32 U/L
  Serum TBIL: 7.95 ± 2.11 µM
  Serum BUN: 7.79 ± 2.11 mM
  Serum ALT: 274.67 ± 186.53 U/L
  Serum AST: 453.33 ± 217.99 U/L
[5]; [13]
  Serum GGT: 1.60 ± 0.17 U/L
  Serum TBIL: 3.61 ± 1.39 µM
  Serum BUN: 6.18 ± 4.85 mM
  Serum ALT: 364.00 ± 329.78 U/L
  Serum AST: 557.67 ± 630.32 U/L
[5]
  Nephrotoxicity: without observable nephrotoxicity

## N.N.[Cl][Pt][Cl] [Cisplatin, reference compound]
[1]; 48 h incubation
  IC50: 3.51 ± 0.14 µM
[2]; 48 h incubation
  IC50: 1.17 ± 0.13 µM

## O=C(C1CCCCC1)N1CC(=O)N2CCc3ccccc3C2C1 (centres unmarked) [PZQ, praziquantel, reference compound]
Adult S. japonicum worms; female worms
  Tegumental damage (SEM), female adult worms: multifocal vesiculation, ulcerative lesions penetrating the basal lamina, and progressive tegumental corrugation
Adult S. japonicum worms; male worms
  Tegumental damage (SEM), male adult worms: extensive tegumental desquamation, complete muscular layer exposure with striation disruption, and ventral sucker collapse
[3]; 24 h, read-out: Mortality (%) 24 h
  mortality at 100 µM: 100%
[3]; 36 h, read-out: Mortality (%) 36 h
  mortality at 100 µM: 100%
[3]; 48 h, read-out: Mortality (%) 48 h
  mortality at 100 µM: 100%
[3]; 72 h
  LC50: 43.8 ± 8.26 µM
[3]; 72 h, read-out: Mortality (%) 72 h
  mortality at 100 µM: 100%
[4]
  Worm burden reduction (WBR), Adult: 100%
  Number of worms, Adult: 0
  Morphology of worms after treatment in vivo, juvenile stage: no significant tegumental alterations compared to negative controls
  Worm burden reduction (WBR), Juvenile: 0%
  Number of worms, Juvenile: 39
  Hepatic egg burden, adult-stage treatment: significantly reduced both ovum dimensions and egg counts
  Hepatic egg burden, juvenile-stage treatment: without statistically significant ovicidal efficacy
